Laboratory results as given in patent US4434159A, “Pharmaceutical composition for intrarectal administration, and suppository prepared therefrom” (Teijin Limited, priority 1980, dated 1984).

What was measured:
[1] = test system: mucous membrane of the eyes (cornea, iris, conjunctiva); experiment: Draize eye irritation test of absorption aids in rabbits
Description: Nothing was applied to the other eye. Thus, irritation of the absorption aid to the mucous membrane of the eyes were examined, and scores were calculated in accordance with the Draize's eye irritation evaluating method [Association of Foods, Drugs and Cosmetics" (1957)].

serum calcium level [2] = experiment: Effect of the amount of the absorption aid on the decrease of serum calcium level (calcitonin suppositories, rats); assay type: in vivo; settings: intrarectal, SD male rats, one hour
Description: (§1) (a) About 14 g of each of the absorption aids shown in Table 1 was added to 186 g of cacao butter, and they were well mixed by a grinder. Salmon caltintonin or [Asu^1,7 ]-eel calcitonin was added gradually and mixed to form a homogeneous composition. The composition was slightly heated to make it flowable, and about 80 mg of it was cast into a suppository container made for rats, and allowed to solidify by cooling to obtain a rat suppository having a diameter of about 3 mm and a length of about 6 mm. The suppository contained 0.7 MRC units of calcitonin.
(§2) The suppository was administered to the rectum of each of […] male rats (body weight about 200 g) and the concentration of calcium in the serum was measured 1, 2, 3, and 5 hours later to examine the absorbabillity of calcitonin from the rectum. The calcium level in the serum was measured by using a calcium level measuring kit of Yatoron Co., and five rats were used for each blood withdrawal. The results are shown in Table 1 as the decrease (%) of the serum calcium level from that before administration of the calcitonin-containing suppository.
(b) Suppositories containing 0.7 MRC unit of [Aus^1.7 ]-eel calcitonin per 80 mg were prepared in the same way as in (a) above by including each of the absorption aids shown in Table 2 in the amounts indicated. Each of the suppositories was intrarectally administered to SD male rats in the same way as in (a) above, and the decrease (%) of the serum calcium level was measured one hour after the administration.

serum calcium level [3] = experiment: Decrease of the serum calcium level after administration of calcitonin suppositories to rats; assay type: in vivo; settings: 0.7 u/kg intramuscularly administered
Description: as §1, §2
Furthermore, [Aus^1,7 ]-eel calcitonin was intramuscularly injected to rats, and the decrease in serum calcium level was also examined.

[4] = absorption aid 0.8% of suppository with 0.7 MRC unit [Aus^1.7]-eel calcitonin per 80 mg
[5] = absorption aid 2.4% of suppository with 0.7 MRC unit [Aus^1.7]-eel calcitonin per 80 mg
[6] = absorption aid 7.0% of suppository with 0.7 MRC unit [Aus^1.7]-eel calcitonin per 80 mg
[7] = 2.4 w/v % soln, 1 hours after application
[8] = 2.4 w/v % soln, 3 hours after application
[9] = 2.4 w/v % soln, 6 hours after application
[10] = 2.4 w/v % soln, 24 hours after application
[11] = 2.4 w/v % soln, 48 hours after application
[12] = 2.4 w/v % soln, 72 hours after application
[13] = 2.4 w/v % soln, 96 hours after application
[14] = 2.4 w/v % soln, 168 hours after application
[15] = aqueous solution applied dropwise to rabbit eye, Draize evaluation
[16] = absorption aid 15.0% of suppository with 0.7 MRC unit [Aus^1.7]-eel calcitonin per 80 mg
[17] = 0.1 w/v % soln, 1 hours after application
[18] = 0.1 w/v % soln, 3 hours after application
[19] = 0.1 w/v % soln, 6 hours after application
[20] = 0.1 w/v % soln, 24 hours after application
[21] = 0.1 w/v % soln, 48 hours after application
[22] = 0.1 w/v % soln, 72 hours after application
[23] = 0.1 w/v % soln, 96 hours after application
[24] = 0.1 w/v % soln, 168 hours after application

Compound: O=C1CCC(C(=O)O)N1 (racemic) [DL-Pyroglutamic acid]
- Primary irritation scores on the eyes: Cornea ([1]; rabbit, in vivo): 0
- Primary irritation scores on the eyes: Iris ([1]; rabbit, in vivo): 0
- irritation to the mucous membrane of the eyes (in words) ([1]; rabbit, in vivo): almost no irritation
- Decrease of the serum calcium level (%) (serum calcium level [2]; [4]): 15.2%
- Decrease of the serum calcium level (%) (serum calcium level [2]; [5]): 20.1%
- Decrease of the serum calcium level (%) (serum calcium level [2]; [6]): 31.0%

Compound: CC(=O)Oc1ccccc1C(=O)O [Acetylsalicylic acid, reference compound]
- Primary irritation scores on the eyes: Cornea ([1]; rabbit, in vivo): 0
- Primary irritation scores on the eyes: Iris ([1]; rabbit, in vivo): 0
- irritation to the mucous membrane of the eyes (in words) ([1]; rabbit, in vivo): almost no irritation

Compound: O=C1O[C@H]([C@@H](O)CO)C(O)=C1O [Ascorbic acid]
- Primary irritation scores on the eyes: Conjunctiva [1, 7]: 3.3
- Primary irritation scores on the eyes: Cornea [1, 7]: 0
- Primary irritation scores on the eyes: Iris [1, 7]: 0
- Primary irritation scores on the eyes: Total [1, 7]: 3.3
- Primary irritation scores on the eyes: Conjunctiva [1, 8]: 1.3
- Primary irritation scores on the eyes: Cornea [1, 8]: 0
- Primary irritation scores on the eyes: Iris [1, 8]: 0
- Primary irritation scores on the eyes: Total [1, 8]: 1.3
- Primary irritation scores on the eyes: Conjunctiva [1, 9]: 1.3
- Primary irritation scores on the eyes: Cornea [1, 9]: 0
- Primary irritation scores on the eyes: Iris [1, 9]: 0
- Primary irritation scores on the eyes: Total [1, 9]: 1.3
- Primary irritation scores on the eyes: Conjunctiva [1, 10]: 0
- Primary irritation scores on the eyes: Cornea [1, 10]: 0
- Primary irritation scores on the eyes: Iris [1, 10]: 0
- Primary irritation scores on the eyes: Total [1, 10]: 0
- Primary irritation scores on the eyes: Conjunctiva [1, 11]: 0
- Primary irritation scores on the eyes: Cornea [1, 11]: 0
- Primary irritation scores on the eyes: Iris [1, 11]: 0
- Primary irritation scores on the eyes: Total [1, 11]: 0
- Primary irritation scores on the eyes: Conjunctiva [1, 12]: 0
- Primary irritation scores on the eyes: Cornea [1, 12]: 0
- Primary irritation scores on the eyes: Iris [1, 12]: 0
- Primary irritation scores on the eyes: Total [1, 12]: 0
- Primary irritation scores on the eyes: Conjunctiva [1, 13]: 0
- Primary irritation scores on the eyes: Cornea [1, 13]: 0
- Primary irritation scores on the eyes: Iris [1, 13]: 0
- Primary irritation scores on the eyes: Total [1, 13]: 0
- Primary irritation scores on the eyes: Conjunctiva [1, 14]: 0
- Primary irritation scores on the eyes: Cornea [1, 14]: 0
- Primary irritation scores on the eyes: Iris [1, 14]: 0
- Primary irritation scores on the eyes: Total [1, 14]: 0
- irritation to the mucous membrane of the eyes (in words) [1, 15]: almost no irritation
- Decrease of the serum calcium level (%) (serum calcium level [2]; [4]): 16.0%
- Decrease of the serum calcium level (%) (serum calcium level [2]; [5]): 22.3%
- Decrease of the serum calcium level (%) (serum calcium level [2]; [6]): 33.1%
- Decrease of the serum calcium level (%) (serum calcium level [2]; [16]): 35.1%

Compound: N[C@@H](CCC(=O)O)C(=O)O [L-Glutamic acid]
- Primary irritation scores on the eyes: Conjunctiva [1, 7]: 3.3
- Primary irritation scores on the eyes: Cornea [1, 7]: 0
- Primary irritation scores on the eyes: Iris [1, 7]: 0
- Primary irritation scores on the eyes: Total [1, 7]: 3.3
- Primary irritation scores on the eyes: Conjunctiva [1, 8]: 2.0
- Primary irritation scores on the eyes: Cornea [1, 8]: 0
- Primary irritation scores on the eyes: Iris [1, 8]: 0
- Primary irritation scores on the eyes: Total [1, 8]: 2.0
- Primary irritation scores on the eyes: Conjunctiva [1, 9]: 2.0
- Primary irritation scores on the eyes: Cornea [1, 9]: 0
- Primary irritation scores on the eyes: Iris [1, 9]: 0
- Primary irritation scores on the eyes: Total [1, 9]: 2.0
- Primary irritation scores on the eyes: Conjunctiva [1, 10]: 0
- Primary irritation scores on the eyes: Cornea [1, 10]: 0
- Primary irritation scores on the eyes: Iris [1, 10]: 0
- Primary irritation scores on the eyes: Total [1, 10]: 0
- Primary irritation scores on the eyes: Conjunctiva [1, 11]: 0
- Primary irritation scores on the eyes: Cornea [1, 11]: 0
- Primary irritation scores on the eyes: Iris [1, 11]: 0
- Primary irritation scores on the eyes: Total [1, 11]: 0
- Primary irritation scores on the eyes: Conjunctiva [1, 12]: 0
- Primary irritation scores on the eyes: Cornea [1, 12]: 0
- Primary irritation scores on the eyes: Iris [1, 12]: 0
- Primary irritation scores on the eyes: Total [1, 12]: 0
- Primary irritation scores on the eyes: Conjunctiva [1, 13]: 0
- Primary irritation scores on the eyes: Cornea [1, 13]: 0
- Primary irritation scores on the eyes: Iris [1, 13]: 0
- Primary irritation scores on the eyes: Total [1, 13]: 0
- Primary irritation scores on the eyes: Conjunctiva [1, 14]: 0
- Primary irritation scores on the eyes: Cornea [1, 14]: 0
- Primary irritation scores on the eyes: Iris [1, 14]: 0
- Primary irritation scores on the eyes: Total [1, 14]: 0
- irritation to the mucous membrane of the eyes (in words) [1, 15]: almost no irritation
- Decrease of the serum calcium level (%) (serum calcium level [2]; [4]): 11.5%
- Decrease of the serum calcium level (%) (serum calcium level [2]; [5]): 17.2%
- Decrease of the serum calcium level (%) (serum calcium level [2]; [16]): 28.1%

Compound: CCCCCCCCCCCCOS(=O)(=O)[O-].[Na+] [Sodium Laurylsulfate, reference compound]
- Primary irritation scores on the eyes: Conjunctiva [1, 17]: 4.0
- Primary irritation scores on the eyes: Cornea [1, 17]: 0
- Primary irritation scores on the eyes: Iris [1, 17]: 0
- Primary irritation scores on the eyes: Total [1, 17]: 4.0
- Primary irritation scores on the eyes: Conjunctiva [1, 18]: 4.0
- Primary irritation scores on the eyes: Cornea [1, 18]: 0
- Primary irritation scores on the eyes: Iris [1, 18]: 0
- Primary irritation scores on the eyes: Total [1, 18]: 4.0
- Primary irritation scores on the eyes: Conjunctiva [1, 19]: 0
- Primary irritation scores on the eyes: Cornea [1, 19]: 0
- Primary irritation scores on the eyes: Iris [1, 19]: 0
- Primary irritation scores on the eyes: Total [1, 19]: 0
- Primary irritation scores on the eyes: Conjunctiva [1, 20]: 0
- Primary irritation scores on the eyes: Cornea [1, 20]: 0
- Primary irritation scores on the eyes: Iris [1, 20]: 0
- Primary irritation scores on the eyes: Total [1, 20]: 0
- Primary irritation scores on the eyes: Conjunctiva [1, 21]: 0
- Primary irritation scores on the eyes: Cornea [1, 21]: 0
- Primary irritation scores on the eyes: Iris [1, 21]: 0
- Primary irritation scores on the eyes: Total [1, 21]: 0
- Primary irritation scores on the eyes: Conjunctiva [1, 22]: 0
- Primary irritation scores on the eyes: Cornea [1, 22]: 0
- Primary irritation scores on the eyes: Iris [1, 22]: 0
- Primary irritation scores on the eyes: Total [1, 22]: 0
- Primary irritation scores on the eyes: Conjunctiva [1, 23]: 0
- Primary irritation scores on the eyes: Cornea [1, 23]: 0
- Primary irritation scores on the eyes: Iris [1, 23]: 0
- Primary irritation scores on the eyes: Total [1, 23]: 0
- Primary irritation scores on the eyes: Conjunctiva [1, 24]: 0
- Primary irritation scores on the eyes: Cornea [1, 24]: 0
- Primary irritation scores on the eyes: Iris [1, 24]: 0
- Primary irritation scores on the eyes: Total [1, 24]: 0
- Primary irritation scores on the eyes: Conjunctiva [1, 7]: 13.3
- Primary irritation scores on the eyes: Cornea [1, 7]: 0
- Primary irritation scores on the eyes: Iris [1, 7]: 5.0
- Primary irritation scores on the eyes: Total [1, 7]: 18.3
- Primary irritation scores on the eyes: Conjunctiva [1, 8]: 12.7
- Primary irritation scores on the eyes: Cornea [1, 8]: 0
- Primary irritation scores on the eyes: Iris [1, 8]: 0
- Primary irritation scores on the eyes: Total [1, 8]: 12.7
- Primary irritation scores on the eyes: Conjunctiva [1, 9]: 11.3
- Primary irritation scores on the eyes: Cornea [1, 9]: 0
- Primary irritation scores on the eyes: Iris [1, 9]: 0
- Primary irritation scores on the eyes: Total [1, 9]: 11.3
- Primary irritation scores on the eyes: Conjunctiva [1, 10]: 8.0
- Primary irritation scores on the eyes: Cornea [1, 10]: 0
- Primary irritation scores on the eyes: Iris [1, 10]: 0
- Primary irritation scores on the eyes: Total [1, 10]: 8.0
- Primary irritation scores on the eyes: Conjunctiva [1, 11]: 4.0
- Primary irritation scores on the eyes: Cornea [1, 11]: 0
- Primary irritation scores on the eyes: Iris [1, 11]: 0
- Primary irritation scores on the eyes: Total [1, 11]: 4.0
- Primary irritation scores on the eyes: Conjunctiva [1, 12]: 2.7
- Primary irritation scores on the eyes: Cornea [1, 12]: 0
- Primary irritation scores on the eyes: Iris [1, 12]: 0
- Primary irritation scores on the eyes: Total [1, 12]: 2.7
- Primary irritation scores on the eyes: Conjunctiva [1, 13]: 2.0
- Primary irritation scores on the eyes: Cornea [1, 13]: 0
- Primary irritation scores on the eyes: Iris [1, 13]: 0
- Primary irritation scores on the eyes: Total [1, 13]: 2.0
- Primary irritation scores on the eyes: Conjunctiva [1, 14]: 0.7
- Primary irritation scores on the eyes: Cornea [1, 14]: 0
- Primary irritation scores on the eyes: Iris [1, 14]: 0
- Primary irritation scores on the eyes: Total [1, 14]: 0.7
- irritation to the mucous membrane of the eyes (in words) [1, 15]: fairly strong irritation

Compound: O=C([O-])c1ccccc1O.[Na+] [Sodium salicylate, reference compound]
- Decrease of the serum calcium level (%) (serum calcium level [2]; [4]): 11.4%
- Decrease of the serum calcium level (%) (serum calcium level [2]; [5]): 20.3%
- Decrease of the serum calcium level (%) (serum calcium level [2]; [6]): 29.6%

Compound: [Asu^1,7 ]-eel calcitonin [[Asu^1.7]eel calcitonin]
- Decrease (%) in serum calcium level from that before administration (serum calcium level [3]; after 1 hour): 26.0%
- Decrease (%) in serum calcium level from that before administration (serum calcium level [3]; after 2 hours): 30.5%
- Decrease (%) in serum calcium level from that before administration (serum calcium level [3]; after 3 hours): 17.5%
- Decrease (%) in serum calcium level from that before administration (serum calcium level [3]; after 5 hours): 2.1%
